For test [1], the system named is AOM/DSS-induced colon tumorigenesis. The experiment in a line: AOM/DSS chronic inflammation-driven colon cancer mouse model. It is filed as in vivo. The note with it: AOM/DSS-treated WT mice; for colon tumor burden: vs vehicle. The protocol: The drug was administered twice weekly for the duration of the protocol. […] As stated above, the AOM/DSS colon cancer model is driven primarily by chronic inflammation; thus, we next assessed mice sera for inflammatory factors TNF-α, IL-6, and MCP-1, which are highly relevant to human colon carcinogenesis.
Tumor models, assessment of tumor burden and adoptive transfer—For the azoxymethane/Dextran Sulfate Sodium (AOM/DSS)-induced tumorigenesis model, six to eight weeks old WT, PARP-1^+/− or PARP-1^−/− mice received a single dose (10 mg/kg) of AOM, i.p., followed by 4 cycles of 1.25% DSS provided in drinking water. Each cycle consisted of a week of DSS water separated by 2 weeks of regular water. […] At week 22 after the start of the experimental protocol, mice were sacrificed by CO2 asphyxiation. Colons, spleens, and blood were collected for analysis. Colons were opened longitudinally and washed with PBS to assess the tumor burdens using a dissecting microscope. For the APC^Min-mediated model, APC^Min/+, APC^Min/+PARP-1^+/−, or APC^Min/+PARP-1^−/− male mice were sacrificed at 16 weeks of age. […] Sacrificed mice were processed as described above except that the tumor burden was assessed along the whole intestinal track. Tumors were counted and divided in groups lower than 2 mm, 2-4 mm, and tumors bigger than 4 mm in diameter.
Tissue processing, immunohistochemistry, immunofluorescence and cytokines measurement—Some tissues were fixed in buffered formalin (10%), paraffin-embedded, then sectioned. Serial sections were subjected to H&E staining, immunohistochemistry (IHC) or immunofluorescence, as described (33), with antibodies to PCNA (Novusbio, Littleton, CO), COX-2 (Santa Cruz Biotechnology, Santa Cruz, CA), ICAM-1 (Santa Cruz Biotechnology), CD8 (Santa Cruz Biotechnology), or Gr1 (eBioscience, San Diego, USA) as previously described (34). […] Cytokine levels were assessed for TNF-α (ELM-TNFα-1), IL-6 (ELM-IL-6-1), and MCP-1 (ELM-MCP1) by ELISA (all from RayBiotech, Norcross, GA) according to the manufacturer's instructions and recommendations.

For test [2], the system named is steroid-resistant leukemia cells. The experiment in a line: Steroid-resistant leukemia cells: cell killing and NOTCH levels. It is filed as cell-based. The note with it: 4 nM.
The subject of the next test is MC-38 cell-based tumors. The test can be described thus: MC-38 cell-based syngeneic colon cancer mouse model. It is filed as in vivo. From the text: Mice that received vehicle increased in size in a time-dependent manner and were sacrificed at day 16.
For the syngeneic tumor models, six to eight weeks old WT, PARP-1^+/−, or PARP-1^−/− mice were subcutaneously inoculated with 2.5×10^5 MC-38 cells. In some experiments, MC-38 cells transfected with p193-PGK-SB100X and pKT2PGK-BsdGFP_CLP-Luc plasmids (flanked by Sleeping Beauty transposons) and sorted by FACS. Selected cells were then engrafted onto mice as described above. When tumors became palpable (at day 4-6), WT mice were randomized and assigned to the different experimental groups. […] Tumor volumes were measured with a digital caliper or assessed using GFP/Luc-Biophotonic Imaging (Xenogen IVIS200, PerkinElmer, Boston, MA). Tumors were measured by the greatest longitudinal diameter (length) and the greatest transverse diameter (width) using a digital caliper. Tumor volumes were calculated using the following formula: tumor volume=(length×width^2)/2. For luciferase imaging, tumor-bearing mice received 150 mg/kg of D-luciferin potassium salt solution (PerkinElmer, Boston, MA) i.p. five minutes prior to anesthetic induction and imaging. Bioluminescence within a predetermined region of interest (ROI) on each mouse was quantified in photons/sec/cm^2/sr. At the end of the protocol (day 20-24), mice were sacrificed and tumors were harvested for further processing and analysis. For the adoptive transfer experiments, 3×10^6 BM-MDSCs derived from WT mice or vehicle were injected, intratumorally, into WT or PARP-1^+/− mice. The MDSCs were delivered at five injection sites at days 8 and 16 following engraftment of MC-38 cells.
Tissue processing, immunohistochemistry, immunofluorescence and cytokines measurement—Some tissues were fixed in buffered formalin (10%), paraffin-embedded, then sectioned. Serial sections were subjected to H&E staining, immunohistochemistry (IHC) or immunofluorescence, as described (33), with antibodies to PCNA (Novusbio, Littleton, CO), COX-2 (Santa Cruz Biotechnology, Santa Cruz, CA), ICAM-1 (Santa Cruz Biotechnology), CD8 (Santa Cruz Biotechnology), or Gr1 (eBioscience, San Diego, USA) as previously described (34). Some of the sections were subjected to immunofluorescence with antibodies to CD8 or Gr1. Blood, collected by cardiac puncture, was run through a Microtainer Serum Separator tube (BD, Franklin Lake, NJ). The collected sera were immediately stored at −80° C. for future use and analysis. Cytokine levels were assessed for TNF-α (ELM-TNFα-1), IL-6 (ELM-IL-6-1), and MCP-1 (ELM-MCP1) by ELISA (all from RayBiotech, Norcross, GA) according to the manufacturer's instructions and recommendations.

Entries after “also recorded” stand apart in the source; their conditions may differ.

Consider one compound from patent US12121518B2, “PARP-1 and methods of use thereof” (The Board of Supervisors of Louisiana State University and …, priority 2017, dated 2024).

Consider `O=C(c1cc(Cc2n[nH]c(=O)c3ccccc23)ccc1F)N1CCN(C(=O)C2CC2)CC1` [olaparib], for which the colon tumor burden result in test [1] (5 mg/kg i.p. twice weekly) and in test [1] (25 mg/kg i.p. twice weekly) was “significantly reduced the tumor burden” throughout. For the same compound, in test [1] (5 or 25 mg/kg), the “colitis (colonic mucosa, H&E)” value was “notable protection”. The “sensitivity of the cells to dexamethasone” value in test [2] is “completely reversed sensitivity of the cells to dexamethasone”. Moreover, the tumor size result with MC-38 cell-based tumors (0.2 mg/kg, WT mice, from palpable tumors) was “barely increased above the size the tumors at the day 5; also recorded: more effective at reducing the tumor burden”; with MC-38 cell-based tumors (1 mg/kg, WT mice, from palpable tumors (day 6)), “very effective at blocking tumor growth”; with MC-38 cell-based tumors (5 mg/kg, WT mice, from palpable tumors) it was “relatively smaller than those of WT; also recorded: significant reduction in the size of MC-38 cell-based tumors”. In the test on MC-38 cell-based tumors (WT mice, olaparib 0.2 mg/kg on alternate days, anti-PD-1 100 μg/mouse every 4 days, alone or combined), the “tumor progression (tumor volume)” value was “significantly reduced the progression of MC-38 tumors”. Also, in the test on MC-38 cell-based tumors (both doses (0.2 and 5 mg/kg)), the “intratumoral ICAM-1 immunoreactivity as a surrogate for inflammation” value was “reduction in inflammation”. Further, the “systemic inflammation (TNF-α, IL-6 and MCP-1 in sera)” value in the test on MC-38 cell-based tumors (both doses (0.2 and 5 mg/kg)) is recorded as “moderately reduced”.
